Laboratory results published in patent US20230114627A1, “COMPOSITION COMPRISING A METAL ASCORBO-CAMPHORATE COMPOUND AND METHOD FOR PREVENTION AND/OR TREATMENT OF PAPILLOMAVIRUS INFECTIONS” (MGB PHARMA Inc., priority 2020, published 2023).

System: HEC-1A cells
Assay: Cytokine/chemokine MultiPlex assay (BioPlex 200) of HEC-1A secretion
Format: cell-based
Settings: 24 hours
Source text: In the model as provided in this example, a method to assess the pro-inflammatory character of antivirals intended to be applied as mucosal topicals was used.
Epithelial cells are capable of secreting a set of molecules called cytokines and chemokines, which are responsible for the recruitment and activation of immune cells at the site of secretion. This process can be deleterious in the context of sexual transmission of HIV-1 because the recruited cells are the preferred targets of the virus. […] A microbicide candidate should therefore not promote inflammation by activating the production of this type of molecule by the cells directly in contact with the substance (epithelial cells). These secretions can be deleterious in the context of sexual transmission of HIV-1 or HPV and other papillomaviruses because the recruited cells are the preferred targets of the virus. A microbicide candidate must thus not promote inflammation by activating the production of these types of molecules by the cells in contact with the substance (epithelial cells).
After 24 hours of incubation, a panel of 48 inflammation-related cytokines/chemokines is assayed by MultiPlex (BioPlex 200 BioRad) in the basal medium.

zinc tetra-ascorbo-camphorate [C14]
IL-12ρ40 (10 μM): 0 pg/mL
IL-13 (10 μM): 4.145 pg/mL
IL-15 (10 μM): 0 pg/mL
IL-16 (10 μM): 0 pg/mL
IL-17 (10 μM): 0 pg/mL
IL-18 (10 μM): 0 pg/mL
IP-10 (10 μM): 7.165 pg/mL
LIF (10 μM): 0 pg/mL
M-CSF (10 μM): 4.805 pg/mL
MCP-1 (10 μM): 7.55 pg/mL
MCP-3 (10 μM): 0 pg/mL
MIF (10 μM): 1.06 pg/mL
MIG (10 μM): 3.76 pg/mL
MIP-1α (10 μM): 2.065 pg/mL
MIP-1β (10 μM): 1.555 pg/mL
PDGF-β (10 μM): 2.805 pg/mL
RANTES (10 μM): 12.995 pg/mL
SCF (10 μM): 0 pg/mL
SCGF-β (10 μM): 255.82 pg/mL
SDF-1α (10 μM): 11.41 pg/mL
TNF-α (10 μM): 6.985 pg/mL
TNF-β (10 μM): 0 pg/mL
TRAIL (10 μM): 5.025 pg/mL
VEGF (10 μM): 1530.905 pg/mL
β-NGF (10 μM): 0.86 pg/mL
CTACK (100 μM): 2.585 pg/mL
Eotaxin (100 μM): 0 pg/mL
FGF (100 μM): 1.635 pg/mL
G-CSF (100 μM): 1.885 pg/mL
GM-CSF (100 μM): 9.51 pg/mL
GROα (100 μM): 0 pg/mL
HGF (100 μM): 4.58 pg/mL
IFN-α2 (100 μM): 4.08 pg/mL
IFN-γ (100 μM): 89.85 pg/mL
IL-1rα (100 μM): 10.3 pg/mL
IL-1α (100 μM): 0 pg/mL
IL-1β (100 μM): 0.34 pg/mL
IL-2 (100 μM): 0.02 pg/mL
IL-2rα (100 μM): 3.245 pg/mL
IL-3 (100 μM): 5.495 pg/mL
IL-4 (100 μM): 0.33 pg/mL
IL-5 (100 μM): 0 pg/mL
IL-6 (100 μM): 0.255 pg/mL
IL-7 (100 μM): 4.495 pg/mL
IL-8 (100 μM): 783.255 pg/mL
IL-9 (100 μM): 22.305 pg/mL
IL-10 (100 μM): 3.505 pg/mL
IL-12 (100 μM): 99.355 pg/mL
IL-12ρ40 (100 μM): 0 pg/mL
IL-13 (100 μM): 3.735 pg/mL
IL-15 (100 μM): 0 pg/mL
IL-16 (100 μM): 0 pg/mL
IL-17 (100 μM): 0 pg/mL
IL-18 (100 μM): 0 pg/mL
IP-10 (100 μM): 0 pg/mL
LIF (100 μM): 0 pg/mL
M-CSF (100 μM): 4.725 pg/mL
MCP-1 (100 μM): 5.3 pg/mL
MCP-3 (100 μM): 0 pg/mL
MIF (100 μM): 1.06 pg/mL
MIG (100 μM): 2.75 pg/mL
MIP-1α (100 μM): 1.77 pg/mL
MIP-1β (100 μM): 1.26 pg/mL
PDGF-β (100 μM): 3.58 pg/mL
RANTES (100 μM): 12.205 pg/mL
SCF (100 μM): 0 pg/mL
SCGF-β (100 μM): 228.825 pg/mL
SDF-1α (100 μM): 11.41 pg/mL
TNF-α (100 μM): 5.465 pg/mL
TNF-β (100 μM): 0 pg/mL
TRAIL (100 μM): 5.025 pg/mL
VEGF (100 μM): 1469.495 pg/mL
β-NGF (100 μM): 0.95 pg/mL
CTACK (500 μM): 3.425 pg/mL
Eotaxin (500 μM): 3.21 pg/mL
FGF (500 μM): 1.925 pg/mL
G-CSF (500 μM): 2.3 pg/mL
GM-CSF (500 μM): 7.53 pg/mL
GROα (500 μM): 2.75 pg/mL
HGF (500 μM): 6.22 pg/mL
IFN-α2 (500 μM): 3.58 pg/mL
IFN-γ (500 μM): 98.775 pg/mL
IL-1rα (500 μM): 14.09 pg/mL
IL-1α (500 μM): 0 pg/mL
IL-1β (500 μM): 0.415 pg/mL
IL-2 (500 μM): 0.28 pg/mL
IL-2rα (500 μM): 4.39 pg/mL
IL-3 (500 μM): 6.785 pg/mL
IL-4 (500 μM): 0.295 pg/mL
IL-5 (500 μM): 0 pg/mL
IL-6 (500 μM): 0.79 pg/mL
IL-7 (500 μM): 4.66 pg/mL
IL-8 (500 μM): 1219.13 pg/mL
IL-9 (500 μM): 30.4 pg/mL
IL-10 (500 μM): 4.165 pg/mL
IL-12 (500 μM): 121.285 pg/mL
IL-12ρ40 (500 μM): 0 pg/mL
IL-13 (500 μM): 4.555 pg/mL
IL-15 (500 μM): 0 pg/mL
IL-16 (500 μM): 0 pg/mL
IL-17 (500 μM): 0 pg/mL
IL-18 (500 μM): 0 pg/mL
IP-10 (500 μM): 10.765 pg/mL
LIF (500 μM): 0 pg/mL
M-CSF (500 μM): 3.995 pg/mL
MCP-1 (500 μM): 5.165 pg/mL
MCP-3 (500 μM): 0 pg/mL
MIF (500 μM): 5.26 pg/mL
MIG (500 μM): 3.09 pg/mL
MIP-1α (500 μM): 2.04 pg/mL
MIP-1β (500 μM): 1.655 pg/mL
PDGF-β (500 μM): 6.19 pg/mL
RANTES (500 μM): 13.835 pg/mL
SCF (500 μM): 0 pg/mL
SCGF-β (500 μM): 128.865 pg/mL
SDF-1α (500 μM): 11.41 pg/mL
TNF-α (500 μM): 10.49 pg/mL
TNF-β (500 μM): 0 pg/mL
TRAIL (500 μM): 3.43 pg/mL
VEGF (500 μM): 1814.38 pg/mL
β-NGF (500 μM): 0.995 pg/mL
